From US6706663B2, “Herbicidal 3-heterocyclic substituted benzisothiazole and benzisoxazole compounds” (Wyeth, priority 2000, dated 2004)

Columns and labels:
[1] = test system: GLXMAW (Soybean, Williams); experiment: Postemergence herbicidal evaluation; assay type: in vivo, Glycine max, (L.) Merr. cv Williams
How it was run: (§1)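 Visual 0–9 injury scores versus control plants, covering stand, vigour, malformation, size, chlorosis and general appearance, taken four to five weeks post-spray and averaged over replicate tests. Plants were sprayed at roughly two weeks old and held on greenhouse benches.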

[2] = test system: TRZAWR (Wheat, Winter, cv Riband); experiment: Preemergence herbicidal evaluation; assay type: in vivo, Triticum aestivum; details: rated 4-5 weeks after treatment
How it was run: (§2)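 Rating 0–9, visual, vs control; 4–5 wk after spraying seeded cups with compound in aq. acetone; conventional greenhouse care.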

[3] = test system: ZEAMX (Corn, Field); experiment: Preemergence herbicidal evaluation; assay type: in vivo, Zea mays, L.; details: rated 4-5 weeks after treatment
[4] = test system: CYPIR (Cyperus iria); experiment: Flooded paddy, preemergence weed control; assay type: in vivo; details: rated 3-4 weeks after treatment, 0-9 rating scale
How it was run: (§3)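 Flooded silt loam pots, seeds in upper 0.5 cm, water held 1.5–3 cm deep; greenhouse; visual 0-9 score vs control.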

[5] = test system: ABUTH (Abutilon theophrasti); experiment: Postemergence herbicidal evaluation; assay type: in vivo, Medic.
How it was run: as §1

[6] = test system: ORYSAT (Rice, Tebonnet); experiment: Preemergence herbicidal evaluation; assay type: in vivo, Oryza sativa, (L.) Tebonnet; details: rated 4-5 weeks after treatment
[7] = test system: GLXMAW (Soybean, Williams); experiment: Preemergence herbicidal evaluation; assay type: in vivo, Glycine max, (L.) Merr. cv Williams; details: rated 4-5 weeks after treatment
[8] = test system: ZEAMX (Corn, Field); experiment: Postemergence herbicidal evaluation; assay type: in vivo, Zea mays, L.
How it was run: as §1

[9] = test system: ECHORC (Echinochloa oryzoides); experiment: Flooded paddy, preemergence weed control; assay type: in vivo, Echinochloa oryzoides (Ard.) Fritsch.; details: rated 3-4 weeks after treatment, 0-9 rating scale
How it was run: as §3

[10] = test system: IPOHE (Ipomoea hederacea); experiment: Postemergence herbicidal evaluation; assay type: in vivo, (L.) Jacq.
How it was run: as §1

[11] = test system: CYPSE (Cyperus serotinus); experiment: Flooded paddy, preemergence weed control; assay type: in vivo, Rottb.; details: rated 3-4 weeks after treatment, 0-9 rating scale
How it was run: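 Seeds or propagules were planted 0.5 cm deep in silt loam and flooded to 1.5–3 cm. Compounds in 50/50 v/v aqueous/acetone were pipetted into the flood water at about 0.0080 to 0.1250 kg/ha. After 3–4 weeks in the greenhouse, effect was rated visually on a 0–9 scale versus untreated control.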

[12] = test system: GALAP (Galium aparine); experiment: Preemergence herbicidal evaluation; assay type: in vivo; details: rated 4-5 weeks after treatment
How it was run: as §2

[13] = test system: GALAP (Galium aparine); experiment: Postemergence herbicidal evaluation; assay type: in vivo
How it was run: as §1

[14] = test system: ECHCG (Echinochloa crus-galli); experiment: Postemergence herbicidal evaluation; assay type: in vivo, (L.) Beau
How it was run: as §1

[15] = test system: SAGPY (Sagittaria pygmaea); experiment: Flooded paddy, preemergence weed control; assay type: in vivo, L.; details: rated 3-4 weeks after treatment, 0-9 rating scale
How it was run: as §3

[16] = test system: AMBEL (Ambrosia artemisifolia); experiment: Preemergence herbicidal evaluation; assay type: in vivo, L.; details: rated 4-5 weeks after treatment
How it was run: as §2

[17] = test system: CASOB (Cassia obtusifolia); experiment: Preemergence herbicidal evaluation; assay type: in vivo, L.; details: rated 4-5 weeks after treatment
How it was run: as §2

[18] = test system: CHEAL (Chenopodium album); experiment: Preemergence herbicidal evaluation; assay type: in vivo, L.; details: rated 4-5 weeks after treatment
How it was run: as §2

[19] = test system: AMBEL (Ambrosia artemisifolia); experiment: Postemergence herbicidal evaluation; assay type: in vivo, L.
How it was run: as §1

[20] = test system: CASOB (Cassia obtusifolia); experiment: Postemergence herbicidal evaluation; assay type: in vivo, L.
How it was run: as §1

[21] = test system: CHEAL (Chenopodium album); experiment: Postemergence herbicidal evaluation; assay type: in vivo, L.
How it was run: as §1

[22] = test system: IPOHE (Ipomoea hederacea); experiment: Preemergence herbicidal evaluation; assay type: in vivo, (L.) Jacq.; details: rated 4-5 weeks after treatment

Cc1cc(C)nc(-c2nsc3ccc(-n4c(=O)cc(C(F)(F)F)n(C)c4=O)cc23)n1 [Compound 40, 3-[3-(4,6-dimethyl-2-pyrimidinyl)-1,2-benzisothiazol-5-yl]-1-methyl-6-(trifluoromethyl)uracil]
Postemergence herbicidal rating, GLXMAW ([1]; rate 0.0320 kg/ha): 7.0
Postemergence herbicidal rating, GLXMAW ([1]; rate 0.0620 kg/ha): 8.0
Preemergence herbicidal rating TRZAWR ([2]; Rate 0.0620 kg/ha): 1.0
Preemergence herbicidal rating TRZAWR ([2]; Rate 0.1250 kg/ha): 5.0
Preemergence herbicidal rating TRZAWR ([2]; Rate 0.2500 kg/ha): 9.0
Preemergence herbicidal rating ZEAMX ([3]; Rate 0.0620 kg/ha): 4.0
Preemergence herbicidal rating ZEAMX ([3]; Rate 0.1250 kg/ha): 8.0
Preemergence herbicidal rating ZEAMX ([3]; Rate 0.2500 kg/ha): 9.0
herbicidal rating, CYPIR ([4]; rate 0.0320 kg/ha): 5.0
herbicidal rating, CYPIR ([4]; rate 0.1250 kg/ha): 6.0
Postemergence herbicidal rating, ABUTH ([5]; rate 0.0320 kg/ha): 9.0
Postemergence herbicidal rating, ABUTH ([5]; rate 0.0620 kg/ha): 9.0
Preemergence herbicidal rating ORYSAT ([6]; Rate 0.0620 kg/ha): 1.0
Preemergence herbicidal rating ORYSAT ([6]; Rate 0.1250 kg/ha): 2.0
Preemergence herbicidal rating ORYSAT ([6]; Rate 0.2500 kg/ha): 4.0
Preemergence herbicidal rating GLXMAW ([7]; Rate 0.0620 kg/ha): 2.0
Preemergence herbicidal rating GLXMAW ([7]; Rate 0.1250 kg/ha): 2.0
Preemergence herbicidal rating GLXMAW ([7]; Rate 0.2500 kg/ha): 5.0
Postemergence herbicidal rating, ZEAMX ([8]; rate 0.0320 kg/ha): 4.5
Postemergence herbicidal rating, ZEAMX ([8]; rate 0.0620 kg/ha): 5.0
herbicidal rating, ECHORC ([9]; rate 0.0320 kg/ha): 2.0
herbicidal rating, ECHORC ([9]; rate 0.1250 kg/ha): 6.0
Postemergence herbicidal rating, IPOHE ([10]; rate 0.0320 kg/ha): 9.0
Postemergence herbicidal rating, IPOHE ([10]; rate 0.0620 kg/ha): 9.0
herbicidal rating, CYPSE ([11]; rate 0.0320 kg/ha): 0.0
herbicidal rating, CYPSE ([11]; rate 0.1250 kg/ha): 0.0
Preemergence herbicidal rating GALAP ([12]; Rate 0.0620 kg/ha): 0.0
Preemergence herbicidal rating GALAP ([12]; Rate 0.1250 kg/ha): 0.0
Preemergence herbicidal rating GALAP ([12]; Rate 0.2500 kg/ha): 8.0
Postemergence herbicidal rating, GALAP ([13]; rate 0.0320 kg/ha): 2.0
Postemergence herbicidal rating, GALAP ([13]; rate 0.0620 kg/ha): 2.0
Postemergence herbicidal rating, ECHCG ([14]; rate 0.0320 kg/ha): 0.0
Postemergence herbicidal rating, ECHCG ([14]; rate 0.0620 kg/ha): 1.0
herbicidal rating, SAGPY ([15]; rate 0.0320 kg/ha): 0.0
herbicidal rating, SAGPY ([15]; rate 0.1250 kg/ha): 5.0
Preemergence herbicidal rating AMBEL ([16]; Rate 0.0620 kg/ha): 3.0
Preemergence herbicidal rating AMBEL ([16]; Rate 0.1250 kg/ha): 5.0
Preemergence herbicidal rating AMBEL ([16]; Rate 0.2500 kg/ha): 9.0
Preemergence herbicidal rating CASOB ([17]; Rate 0.0620 kg/ha): 1.0
Preemergence herbicidal rating CASOB ([17]; Rate 0.1250 kg/ha): 2.0
Preemergence herbicidal rating CASOB ([17]; Rate 0.2500 kg/ha): 5.0
Preemergence herbicidal rating CHEAL ([18]; Rate 0.0620 kg/ha): 9.0
Preemergence herbicidal rating CHEAL ([18]; Rate 0.1250 kg/ha): 9.0
Preemergence herbicidal rating CHEAL ([18]; Rate 0.2500 kg/ha): 9.0
Postemergence herbicidal rating, AMBEL ([19]; rate 0.0320 kg/ha): 9.0
Postemergence herbicidal rating, AMBEL ([19]; rate 0.0620 kg/ha): 9.0
Postemergence herbicidal rating, CASOB ([20]; rate 0.0320 kg/ha): 1.0
Postemergence herbicidal rating, CASOB ([20]; rate 0.0620 kg/ha): 6.0
Postemergence herbicidal rating, CHEAL ([21]; rate 0.0320 kg/ha): 4.0
Postemergence herbicidal rating, CHEAL ([21]; rate 0.0620 kg/ha): 6.0
Preemergence herbicidal rating IPOHE ([22]; Rate 0.0620 kg/ha): 2.0
Preemergence herbicidal rating IPOHE ([22]; Rate 0.1250 kg/ha): 7.0
Preemergence herbicidal rating IPOHE ([22]; Rate 0.2500 kg/ha): 9.0
